# Key:
# [1] = system: neonatal rat pancreatic islets; assay: IL-1β-induced nitric oxide production (nitrite, Griess reagent); assay type: cell-based; conditions: nitrites in supernatants of the apoptosis experiments, four independent experiments
# Description: (§1) For cell death detection, rat islets were incubated with 150 pg/ml IL-1β (BD Pharmingen, San Diego, CA, USA) alone or in combination with various concentrations of Ana and Ilantide for 24 hours at 37°C in humidified atmospheric air. Rat islet cell death was assessed by cell death detection ELISA (Roche, Lund, Sweden) as previously described. As a surrogate measure of nitric oxide production, Griess reagent (1:1 aqueous mixture of 0.1% naphthylethylenediamine hydrochloride and 1% sulfanilamide + 5% H3PO4) was mixed in a 1:1 ratio with 100 μl of supernatant samples to determine the nitrite content in supernatants from the cell death assays described above.
# Figure 8 Effect of Ilantide on interleukin 1β-induced nitric oxide production. Anakinra (A) but none of the peptides, Ilantide-m (B) or Ilantide-t (C), inhibited interleukin 1β (IL-1β)-induced nitric oxide production. The results of four independent experiments are shown. *P < 0.05 and **P < 0.01 compared with cultures treated with IL-1 alone (one-way analysis of variance followed by Dunnett’s post hoc test).
# [2] = system: neonatal rat pancreatic islets; assay: IL-1β-induced rat islet cell apoptosis (cell death detection ELISA); assay type: cell-based; conditions: rat islets, 8.68 nM (150 pg/ml) IL-1β, 24 hours
# Description: Neonatal rat islets were isolated from 3- to 6-day-old outbred Wistar rats (Taconic, Ejby, Denmark) as previously described. Islets were precultured and maintained in RPMI 1640 medium (Gibco/Life Technologies) supplemented with 20 mmol/L HEPES buffer, 0.038% (wt/vol) NaHCO3, 100 U/ml penicillin, 100 µg/ml streptomycin and 10% (vol/vol) newborn calf serum (NCS) at 37°C in humidified atmospheric air. Prior to experimentation, the islets were randomly distributed to 24-well dishes and incubated for 2 hours in RPMI 1640 medium supplemented as described above, but with 0.5% (vol/vol) NCS relevant reagents were added as indicated.
# as §1
# Figure 7 Effect of Ilantide on interleukin 1β-induced rat islet cell apoptosis. Rat pancreatic islets were preincubated for 30 minutes in the absence or presence of various concentrations of anakinra (A), Ilantide-m (B) or Ilantide-t (C) and then exposed to […] interleukin 1β (IL-1β) for 24 hours. Cytokine-induced apoptosis was determined by cell death detection enzyme-linked immunosorbent assay. Apoptosis rates are presented as fold induction compared with untreated control islets (white bars). The data from four independent experiments are presented as mean ± SEM. *P < 0.05 and **P < 0.01 compared with cultures treated with IL-1β alone (one-way analysis of variance followed by Dunnett’s post hoc test).
# [3] = system: LPS-induced neuroinflammation; assay: Lipopolysaccharide-induced impairment of social behavior; assay type: in vivo; conditions: rat, Ana 100 mg/kg s.c.
# Description: The peripheral administration of LPS, the active fragment of bacterial endotoxin, results in an increase in the plasma levels of all proinflammatory cytokines and behavioral depression. LPS-induced behavioral depression was assessed by measuring the reduction of the duration of social interaction during 4-minute sessions. Six- to seven-week-old rats were handled for five days, habituated to the test cages and the experiment room and trained for social interaction with three-week-old juvenile rats introduced into the test cage for four minutes two days before the actual experiment. On the day of the experiment, the rats were intraperitoneally injected (i.p.) with saline or LPS (Escherichia coli 0111:B4; Sigma-Aldrich) dissolved in saline (250 μg/kg). Immediately after the i.p. injection, Ilantide-t (Ila; 10 mg/kg, equivalent to 2.1 μmol/kg), Ana ([…], equivalent to 5.8 μmol/kg) or saline was injected subcutaneously. The volume of all of the injections was 1.0 ml/kg. Six experimental groups were used: vehicle i.p./vehicle s.c. (veh/veh; n = 10), vehicle i.p./Ilantide-t s.c. (veh/Ila; n = 8), vehicle i.p./Ana s.c. (veh/Ana; n = 9), LPS i.p./vehicle s.c. (LPS/veh; n = 10), LPS i.p./Ilantide-t s.c. (LPS/Ila; n = 11) and LPS i.p./Ana s.c. (LPS/Ana; n = 11). The injections and weighing of the rats were performed immediately after the first test session (0 h), and the animals were tested and weighed again 2, 4, 6, 8, and 24 hours later. Different juvenile animals were presented on each occasion. Social interaction consisted of anogenital sniffing, licking and chewing the fur of the juveniles by the experimental animals and was monitored with a video camera. […] The duration of social interaction at each time point is expressed as the percentage of baseline values and was averaged for each experimental group. Social interaction was scored by an observer who was blinded to the treatment of the animals. For evaluation of levels of pro- and anti-inflammatory cytokines in blood, rats were injected with LPS and then immediately with either vehicle (n = 8) or Ilantide-t (n = 8) as described above. In addition, a control group of animals (n = 4) was treated with Ilantide-t alone (control). Blood samples were collected at 0, 2 and 6 hours after injections as described for the pharmacokinetics study and stored at -20°C until use. The levels of IL-6, IFN-γ and IL-10 were determined using corresponding rat ELISA kits according to the manufacturer’s protocols (all from BD Biosciences, San Diego, CA, USA).
substance,measurement,setting,value
"Ana: recombinantly produced N-terminal methionylated, nonglycosylated version of human IL-1Ra [reference compound]",Inhibition of IL-1β-induced nitric oxide production,[1],inhibited
same,Concentration giving maximal inhibition of IL-1β-induced apoptosis,[2],86.8 µM
same,Maximal inhibition of IL-1β-induced apoptosis,"[2]; 30 minutes preincubation, four independent experiments",64%
same,Effect on LPS-induced body weight decrease,"[3]; 24 hours after LPS 250 μg/kg i.p., Ilantide-t 10 mg/kg, P < 0.05",attenuated the anorexigenic effect of LPS
same,Social behavior per se (without LPS),"[3]; Ilantide-t 10 mg/kg s.c., vehicle i.p.",did not modify social behavior per se
same,Effect on LPS-induced depression of social activity (sickness behavior),"[3]; LPS 250 μg/kg i.p., Ilantide-t 10 mg/kg s.c., 2 to 24 hours",No significant effect

# From paper PMC3923439, “Anti-inflammatory properties of a novel peptide interleukin 1 receptor antagonist” (Journal of Neuroinflammation, 2014)
